Measured values published in patent US8877351B2, “Organometallic complex, and lighting apparatus, and electronic device using the organometallic complex” (Semiconductor Energy Laboratory Co., Ltd., priority 2008, dated 2014).

Test: solubility determination in organic solvents
Assay type: physicochemical
Source text: It is confirmed that Ir(dbq-tBuP)2(acac) can be dissolved in each of 2-ethoxyethanol, 1,4-dioxane, chloroform, and toluene.

Compound: CC(=O)C=C(C)[O][Ir]([c]1cc(C(C)(C)C)ccc1-c1cnc2c3ccccc3c3ccccc3c2n1)[c]1cc(C(C)(C)C)ccc1-c1cnc2c3ccccc3c3ccccc3c2n1 [Ir(dbq-tBuP)2(acac), (acetylacetonato)bis{2-(4-tert-butylphenyl)-dibenzo[f,h]quinoxalinato}iridium(III)]
- solubility (in chloroform): ≥ 1200 µg/mL
- solubility (in toluene): ≥ 1200 µg/mL
- Solubility x (solvent: Chloroform): 1.2 ≦ x g/L
- Solubility x (solvent: Ethanol): x < 0.6 g/L
- Solubility x (solvent: Isopropyl alcohol): x < 0.6 g/L
- Solubility x (solvent: Toluene): 1.2 ≦ x g/L
